Laboratory results reported in PMC9725750, “The clinical pharmacology of tafenoquine in the radical cure of Plasmodium vivax malaria: An individual patient data meta-analysis” (eLife, 2022).
Where two headings read alike, the source gives them in different places.

Legend:
blood MetHb = experiment: Blood methaemoglobin (MetHb) concentration on day 7 by pulse CO-oximeter; type: in vivo, human
Description: All patients in the phase 1 trial and the three efficacy trials had frequent blood MetHb measurements taken using non-invasive signal extraction pulse CO-oximeter handheld machines. For the three efficacy trials, we excluded measurements taken at or after recurrence of vivax malaria. Because erroneous readings from the handheld oximeters can occur, we inspected visually the longitudinal MetHb curves for each patient. […] All patients from this site were excluded from the MetHb analysis ( n =91), resulting in a total of 9632 MetHb measurements across 746 P. vivax infected patients and 72 healthy volunteers.

[1] = Population pharmacokinetic modelling of plasma tafenoquine (patients and healthy volunteers); type: in vivo, human; conditions: for Patient – MTT covariate / Patient – Vc/F covariate / Patient – Vp/F covariate: Malaria patients: 1 + Θ; for Vomit – F covariate: Vomiting: 1 + Θ; for Age – CL/F covariate: linear, 1 + Θ × (Age-35); for Vd/F: human, plasma, oral, read-out: Vc/F, apparent central volume of distribution; for IIV CL/F, inter-individual variability / IIV F, inter-individual variability / IIV MTT, inter-individual variability / IIV Q/F, inter-individual variability / IIV Vp/F, inter-individual variability / RUV, additive residual error: variance estimate
Description: Tafenoquine pharmacokinetics have been described in detail previously ([Thakkar et al., 2018]). Tafenoquine is a slowly eliminated 8-aminoquinoline antimalarial drug with a terminal elimination half-life of around 15 days. The metabolites have not been well characterised. Tafenoquine pharmacokinetics have been characterised previously by a two-compartment pharmacokinetic (PK) model (i.e. bi-exponential decay model) with allometric scaling of clearance and volume parameters ([Thakkar et al., 2018]). We inspected visually all individual drug level profiles and excluded 10 concentrations from 8 patients which were substantial outliers. A total of 15 malaria patients vomited within one hour of drug administration. […] One patient was not re-dosed and had very low tafenoquine levels during follow-up. We removed this patient from all analyses as it is difficult to estimate the amount of drug ingested. For the remaining 14 patients who vomited and were re-dosed, time since dose was calculated as the time since the second dose (in some patients this was the next day). All available tafenoquine concentration measurements were transformed into their natural logarithms and characterised using nonlinear mixed-effects modelling in the software NONMEM v7.4 (Icon Development Solution, Ellicott City, MD). […] One-, two-, and three-compartment dispositional models were evaluated, as well as different absorption models (i.e. first-order absorption and a fixed number of transit absorption compartments). Inter-individual variability was implemented as an exponential function of all structural PK parameters. The first-order conditional estimation method with interactions (FOCE-I) and subroutine ADVAN5 TRANS1 were used throughout the study. Body weight was implemented as a fixed allometric function on clearance parameters (exponent of 0.75) and as a linear function on volume parameters (exponent of 1.0). Additional, biologically relevant, covariates (i.e. age, sex, vomiting, tafenoquine formulation and patient vs healthy volunteers) were evaluated on all PK parameters using a linearized stepwise addition (p<0.01) and backward elimination (p<0.001) covariate approach.
Potential model mis-specification and systematic errors were evaluated by basic goodness-of-fit diagnostics. Model robustness and parameter confidence intervals were evaluated by a sampling-important-resampling (SIR) procedure ([Dosne et al., 2017]). Predictive performance of the final model was illustrated by prediction-corrected visual predictive checks (n=2,000) ([Bergstrand et al., 2011]). The 5th, 50th, and 95th percentiles of the observed concentrations were overlaid with the 95% confidence intervals of each simulated percentile to detect model bias. Under the population mixed-effects model we estimated for each healthy volunteer and each patient in the three efficacy studies: (i) the area under the plasma concentration time curve ( AUC[0,∞ ); (ii) the maximum peak concentration ( Cmax ); and (iii) the terminal elimination half-life (t1/2). […] Details of the final model are given in Appendix 6.
For the terminal elimination half-life, multiple patients had estimated values greater than 30 days. On examination, the NONMEM model estimates of the terminal elimination half-life were not robust with respect to the model structure. In order to derive robust half-life estimates, we fit a robust (using a student- t likelihood, [Lange et al., 1989]) Bayesian hierarchical linear model to the observed log-concentrations post day 4 (terminal phase; random intercept and slope). […] The half-life is then defined as -log(2)/βi where βi is the individual slope estimate for patient i . Values below the lower limit of quantification were treated as left-censored observations with censoring value equal to log(2 ng/ml). The model included an interaction term between time and the log patient weight (clearance was associated with weight); and a dose (mg/kg) dependent intercept term. […]

[2] = population estimate (%RSE), typical healthy individual 70 kg, 35 years

COc1cc(C)c2c(Oc3cccc(C(F)(F)F)c3)c(OC)cc(NC(C)CCCN)c2n1 (stereo not drawn) [tafenoquine]
increase in day 7 MetHb concentrations per additional mg/kg (blood MetHb; 95% CI 17% to 21%): 19% | lower day 7 methaemoglobinaemia in healthy volunteers compared to patients infected with P. vivax (blood MetHb; adjusted for mg/kg dose, 95% CI 0 to 34%, p=0.02): 15% | day of peak MetHb levels (blood MetHb; after single dose tafenoquine + chloroquine): ~7 days | CL/F, oral elimination clearance ([1]; SIR median (95% CI)): 3.14 (2.71–3.70) L/h | MTT, mean absorption transit time over 6 transit compartments ([1]; SIR median (95% CI)): 3.05 (2.30–3.87) h | Vp/F, apparent peripheral volume of distribution ([1]; SIR median (95% CI)): 318 (248–424) L | Patient – MTT covariate ([1]; SIR median (95% CI)): 0.929 (0.605–1.51) | Patient – Vc/F covariate ([1]; SIR median (95% CI)): –0.282 (-0.0784–-0.395) | Patient – Vp/F covariate ([1]; SIR median (95% CI)): 1.30 (0.670–1.88) | Vomit – F covariate ([1]; SIR median (95% CI)): 0.434 (0.315–0.608) | Age – CL/F covariate ([1]; SIR median (95% CI)): –0.00435 (-0.00206–-0.00589) | decrease in CL/F per 10 years of age increase from the median age of 35 years ([1]; covariate Age – CL/F, final model): 4.34% | lower central volume of distribution in patients compared to healthy volunteers ([1]; covariate Patient – Vc/F): 27.6% | higher total dose when 1st dose was vomited and re-administered ([1]; covariate Vomit – F, relative oral bioavailability): 44.7% | Vd/F ([1]; SIR median (95% CI)): 1360 L | Vd/F [1, 2]: 1330 L | Patient – MTT covariate ([1]; population estimate (%RSE)): 0.937 (24.7) | Patient – Vc/F covariate ([1]; population estimate (%RSE)): –0.276 (29.4) | Patient – Vp/F covariate ([1]; population estimate (%RSE)): 1.40 (21.6) | Vomit – F covariate ([1]; population estimate (%RSE)): 0.447 (16.3) | Age – CL/F covariate ([1]; population estimate (%RSE)): –0.00434 (23.4) | CL/F, oral elimination clearance [1, 2]: 3.14 (8.43) L/h | MTT, mean absorption transit time over 6 transit compartments [1, 2]: 3.14 (12.8) h | Vp/F, apparent peripheral volume of distribution [1, 2]: 311 (14.4) L | IIV CL/F, inter-individual variability ([1]; SIR median (95% CI)): 0.0349 (0.0193–0.0451) | IIV F, inter-individual variability ([1]; SIR median (95% CI)): 0.0870 (0.0559–0.120) | IIV MTT, inter-individual variability ([1]; SIR median (95% CI)): 0.0887 (0.0585–0.124) | IIV Q/F, inter-individual variability ([1]; SIR median (95% CI)): 0.156 (0.1000–0.226) | IIV Vp/F, inter-individual variability ([1]; SIR median (95% CI)): 0.0265 (0.0153–0.0400) | RUV, additive residual error ([1]; SIR median (95% CI)): 0.0240 (0.0170–0.0333) | IIV CL/F, inter-individual variability ([1]; population estimate (%RSE)): 0.0338 (18.8) | IIV F, inter-individual variability ([1]; population estimate (%RSE)): 0.0850 (19.2) | IIV MTT, inter-individual variability ([1]; population estimate (%RSE)): 0.0831 (21.0) | IIV Q/F, inter-individual variability ([1]; population estimate (%RSE)): 0.151 (20.5) | IIV Vp/F, inter-individual variability ([1]; population estimate (%RSE)): 0.0256 (25.3) | RUV, additive residual error ([1]; population estimate (%RSE)): 0.0225 (18.8)
